Literature values, collected in US20250258179A1, “Method for Estimating Meal Component Bioavailability” (The Texas A&M University System, priority 2024, published 2025).

System: critically ill patients
Conditions: recently shown

Structure (SMILES): CC(C)(O)CC(=O)O [HMB, hydroxy-methylbutyric acid]
- protein breakdown: reduction in protein breakdown
